According to ChEMBL document CHEMBL2150884, “Inhibition of cell proliferation by quindoline derivative (SYUIQ-05) through its preferential interaction with c-myc promoter G-quadruplex” (J Med Chem, 2011):
Activity calls are given as the source filed them. The rule behind the calls is not given here.

Assays:
Nucleic Acid [1] = experiment: Binding affinity to c-myc Pu27 DNA G-quadruplex in human Ramos cells assessed as down regulation of TERT protein expression at 0.05 to 0.1 uM after 4 days by Western blot method; format: cell-based
Ramos [2] = experiment: Induction of senescence in human Ramos cells assessed as flat cells at 0.05 to 0.1 uM after 16 days by beta galactosidase assay; format: functional, cell-based
Nucleic Acid [3] = experiment: Binding affinity to c-myc Pu27 DNA G-quadruplex in human CA46 cells assessed as down regulation of c-myc protein expression at 0.05 to 0.1 uM after 4 days by Western blot method; format: cell-based
Nucleic Acid [4] = experiment: Binding affinity to G-quadruplex HTG21 assessed as change in melting temperature by FRET assay; format: nucleic-acid assay
MGC-803 = experiment: Cytotoxicity in human MGC803 cells by MTT assay; format: functional, cell-based
Nucleic Acid [5] = experiment: Binding affinity to c-myc Pu27 DNA G-quadruplex in human Ramos cells assessed as down regulation of TERT transcription at 0.1 uM after 4 days by qRT-PCR; format: cell-based
Nucleic Acid [6] = experiment: Binding affinity to c-myc Pu27 DNA G-quadruplex assessed as change in melting temperature by FRET assay; format: nucleic-acid assay
Nucleic Acid [7] = experiment: Binding affinity to G-quadruplex HTG21 by ITC titration assay; format: nucleic-acid assay
Nucleic Acid [8] = experiment: Binding affinity to c-myc Pu27 DNA G-quadruplex in human CA46 cells assessed as down regulation of TERT transcription at 0.1 uM after 4 days by qRT-PCR; format: cell-based
HeLa = experiment: Cytotoxicity in human HeLa cells by MTT assay; format: functional, cell-based
HL-60 = experiment: Cytotoxicity in human HL60 cells by MTT assay; format: functional, cell-based
[9] = molecular target: Telomerase reverse transcriptase (Homo sapiens) (UniProt O14746); experiment: […] in human Ramos cells at 0.05 to 0.1 uM for 16 days by TRF length assay; format: cell-based
Chain of Telomerase reverse transcriptase (Homo sapiens) (O14746 whole entry): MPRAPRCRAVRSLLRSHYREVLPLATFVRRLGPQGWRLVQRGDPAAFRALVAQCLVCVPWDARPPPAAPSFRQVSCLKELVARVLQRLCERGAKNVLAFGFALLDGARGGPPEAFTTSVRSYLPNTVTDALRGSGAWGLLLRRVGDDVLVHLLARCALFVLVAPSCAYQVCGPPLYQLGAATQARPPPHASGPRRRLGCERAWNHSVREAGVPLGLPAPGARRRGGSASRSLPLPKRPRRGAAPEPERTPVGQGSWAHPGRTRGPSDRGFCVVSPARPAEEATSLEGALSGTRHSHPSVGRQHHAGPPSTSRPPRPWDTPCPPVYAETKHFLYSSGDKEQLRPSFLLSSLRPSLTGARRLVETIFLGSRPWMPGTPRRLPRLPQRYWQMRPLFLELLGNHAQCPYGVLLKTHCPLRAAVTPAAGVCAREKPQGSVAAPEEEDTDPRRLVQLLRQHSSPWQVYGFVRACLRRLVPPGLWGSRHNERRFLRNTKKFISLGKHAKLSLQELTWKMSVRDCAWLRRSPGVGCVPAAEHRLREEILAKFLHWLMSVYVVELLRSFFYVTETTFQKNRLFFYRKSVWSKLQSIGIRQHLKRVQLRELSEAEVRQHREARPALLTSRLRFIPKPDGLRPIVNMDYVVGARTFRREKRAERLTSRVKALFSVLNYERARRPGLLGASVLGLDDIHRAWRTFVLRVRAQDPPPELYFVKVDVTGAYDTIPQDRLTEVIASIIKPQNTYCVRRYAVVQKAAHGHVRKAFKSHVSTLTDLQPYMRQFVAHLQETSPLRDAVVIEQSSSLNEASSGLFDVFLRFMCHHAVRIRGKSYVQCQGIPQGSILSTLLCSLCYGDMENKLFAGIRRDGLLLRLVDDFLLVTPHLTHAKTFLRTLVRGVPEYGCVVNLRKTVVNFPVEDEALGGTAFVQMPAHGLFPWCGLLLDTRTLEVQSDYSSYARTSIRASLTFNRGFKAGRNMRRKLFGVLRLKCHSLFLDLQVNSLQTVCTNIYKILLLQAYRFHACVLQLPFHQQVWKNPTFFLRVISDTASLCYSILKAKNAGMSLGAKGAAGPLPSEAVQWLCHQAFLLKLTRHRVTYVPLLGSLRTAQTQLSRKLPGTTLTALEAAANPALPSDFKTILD

[10] = molecular target: Telomerase reverse transcriptase (Homo sapiens) (UniProt O14746); experiment: […] in human Ramos cells at 0.05 uM for 16 days by TRF length assay; format: cell-based
Ramos [11] = experiment: Antiproliferative activity against human Ramos cells assessed as cell viability after 20 days; format: functional, cell-based
[12] = Cytotoxicity in human GLC82 cells by MTT assay; format: functional, cell-based
Ramos [13] = experiment: Induction of senescence in human Ramos cells assessed as gaint cells at 0.05 to 0.1 uM after 16 days by beta galactosidase assay; format: functional, cell-based
K562 = experiment: Cytotoxicity in human K562 cells by MTT assay; format: functional, cell-based
[14] = Cytotoxicity in human CNE2 cells by MTT assay; format: functional, cell-based; conditions: CNE-2
Nucleic Acid [15] = experiment: Binding affinity to c-myc Pu27 DNA G-quadruplex in human Ramos cells assessed as down regulation of c-myc transcription at 0.1 uM after 4 days by qRT-PCR; format: cell-based
[16] = Cytotoxicity in human SUNE1 cells by MTT assay; format: functional, cell-based
Nucleic Acid [17] = experiment: Binding affinity to c-myc Pu27 DNA G-quadruplex by ITC titration assay; format: nucleic-acid assay
Nucleic Acid [18] = experiment: Binding affinity to c-myc Pu27 DNA G-quadruplex in human CA46 cells assessed as down regulation of c-myc transcription at 0.1 uM after 4 days by qRT-PCR; format: cell-based
[19] = molecular target: Telomerase reverse transcriptase (Homo sapiens) (UniProt O14746); experiment: […] in human Ramos cells at 0.1 uM for 16 days by TRF length assay; format: cell-based
CA46 [20] = experiment: Induction of senescence in human CA46 cells assessed as gaint cells at 0.05 to 0.1 uM after 16 days by beta galactosidase assay; format: functional, cell-based
CA46 [21] = experiment: Induction of senescence in human CA46 cells assessed as flat cells at 0.05 to 0.1 uM after 16 days by beta galactosidase assay; format: functional, cell-based
Nucleic Acid [22] = experiment: Inhibition of NM23-H2 interaction with c-myc DNA G-quadruplex in human HeLa cells assessed as inhibition of c-myc expression at 0.1 uM measured by quantitative RT-PCR analysis; format: cell-based
Nucleic Acid [23] = experiment: Inhibition of POT1 interaction with wild type c-myc DNA G-quadruplex expressed in human HeLa cells assessed as dissociation of POT1 from c-myc promoter at 0.05 to 0.1 uM by Ch-IP assay; format: cell-based
Nucleic Acid [24] = experiment: Binding affinity to c-myc Pu27 DNA G-quadruplex in human Ramos cells assessed as down regulation of c-myc protein expression at 0.05 to 0.1 uM after 4 days by Western blot method; format: cell-based
Nucleic Acid [25] = experiment: Inhibition of NM23-H2 interaction with c-myc mutant promoter DNA expressed in human HeLa cells assessed as dissociation of NM23-H2 from c-myc promoter at 0.05 to 0.1 uM by Ch-IP assay; format: cell-based
CA46 [26] = experiment: Antiproliferative activity against cmyc NHE III1 element-deficient human CA46 cells assessed as cell viability after 20 days; format: functional, cell-based
Ramos [27] = experiment: Antiproliferative activity against human Ramos cells assessed as cell viability at 0.05 uM after 20 days; format: functional, cell-based
Nucleic Acid [28] = experiment: Binding affinity to G-quadruplex HTG21 by PCR stop assay; format: nucleic-acid assay
Bel-7402 = experiment: Cytotoxicity in human Bel7402 cells by MTT assay; format: functional, cell-based
Nucleic Acid [29] = experiment: Inhibition of NM23-H2 interaction with wild type c-myc DNA G-quadruplex expressed in human HeLa cells assessed as dissociation of NM23-H2 from c-myc promoter at 0.05 to 0.1 uM by Ch-IP assay; format: cell-based
Nucleic Acid [30] = experiment: Binding affinity to c-myc Pu27 DNA G-quadruplex by PCR stop assay; format: nucleic-acid assay

CN(C)CCCNc1c2ccccc2nc2c1[nH]c1ccccc12
Activity (Nucleic Acid [1]): Active
Activity (Ramos [2]): Active
Activity (Nucleic Acid [3]): Active
ΔTm (Nucleic Acid [4]): 10 °C
IC50 (MGC-803): 240 nM
Activity (Nucleic Acid [5]): Active
ΔTm (Nucleic Acid [6]): 13 °C
Ka (Nucleic Acid [7]): 1.79 10^4 M^-1
Activity (Nucleic Acid [8]): inactive
IC50 (HeLa): 240 nM
IC50 (HL-60): 240 nM
inhibition [9]: Active
inhibition [10]: Active
Activity (Ramos [11]): Dose-dependent effect
IC50 [12]: 240 nM
Activity (Ramos [13]): Active
IC50 (K562): 240 nM
IC50 [14]: 240 nM
Activity (Nucleic Acid [15]): Active
IC50 [16]: 240 nM
Ka (Nucleic Acid [17]): 4.03 10^4 M^-1
Activity (Nucleic Acid [18]): inactive
inhibition [19]: Active
Activity (CA46 [20]): inactive
Activity (CA46 [21]): inactive
inhibition (Nucleic Acid [22]): Active
inhibition (Nucleic Acid [23]): inactive
Activity (Nucleic Acid [24]): Active
inhibition (Nucleic Acid [25]): inactive
inhibition (CA46 [26]): inactive
Activity (Ramos [27]): Active
IC50 (Nucleic Acid [28]): 2500 nM
IC50 (Bel-7402): 240 nM
inhibition (Nucleic Acid [29]): Active
IC50 (Nucleic Acid [30]): 1800 nM
